Assay results from patent publication US20240025883A1, “PYRIMIDIN-2-YL SULFONAMIDE DERIVATIVES” (Hoffmann-La Roche Inc., priority 2021, published 2024).

Target: human GPR17 short isoform (Homo sapiens (Human), UniProt Q13304)
Experiment: GPR17 cAMP assay (hGPR17 cAMP, antagonist mode against EC80 of MDL29,951)
Format: cell-based
Details: CHO-K1 cells stably expressing human GPR17 short isoform; EC80 of agonist MDL29,951; forskolin 15 μM
How it was run: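 CHO-K1 cells stably expressing untagged human GPR17 short isoform, 10,000/well in HBSS/10 mM HEPES/0.1% BSA pH 7.4. Compounds added with EC80 MDL29,951 and 0.5 mM IBMX, then 15 μM forskolin 5 min later, 30 min at room temperature; cAMP by TR-FRET, normalized to reference antagonist, sigmoidal fit.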

Sequence of human GPR17 short isoform (Q13304 29-367): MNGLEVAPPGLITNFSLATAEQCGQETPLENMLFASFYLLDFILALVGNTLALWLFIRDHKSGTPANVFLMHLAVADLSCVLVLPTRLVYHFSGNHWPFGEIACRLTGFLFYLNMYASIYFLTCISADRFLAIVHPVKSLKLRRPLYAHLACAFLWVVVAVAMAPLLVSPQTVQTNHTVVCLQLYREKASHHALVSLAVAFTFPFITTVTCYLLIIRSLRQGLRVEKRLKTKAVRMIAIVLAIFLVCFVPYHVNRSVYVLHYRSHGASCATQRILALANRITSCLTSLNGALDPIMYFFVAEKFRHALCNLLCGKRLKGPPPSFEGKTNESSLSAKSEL

| Compound | IC50 |
| --- | --- |
| COc1nc(NS(=O)(=O)c2c[nH]c3nc(Br)ccc23)nc(OC)c1C [Example 160, 6-bromo-N-(4,6-dimethoxy-5-methyl-pyrimidin-2-yl)-1H-pyrrolo[2,3-b]pyridine-3-sulfonamide] | 11 nM |
| COc1nc(NS(=O)(=O)c2csc3c(F)c(Cl)ccc23)ncc1CCC#N [Example 163, 6-chloro-N-[5-(2-cyanoethyl)-4-methoxy-pyrimidin-2-yl]-7-fluoro-benzothiophene-3-sulfonamide] | 216 nM |
| COc1nc(NS(=O)(=O)c2csc3nc(C(F)F)ccc23)nc(OC)c1CC(F)F [Example 167, N-[5-(2,2-difluoroethyl)-4,6-dimethoxy-pyrimidin-2-yl]-6-(difluoromethyl)thieno[2,3-b]pyridine-3-sulfonamide] | 259 nM |
| COc1nc(NS(=O)(=O)c2c[nH]c3c2ccc2cccnc23)nc(OC)c1OCC(F)F [Example 168, N-[5-(2,2-difluoroethoxy)-4,6-dimethoxy-pyrimidin-2-yl]-1H-pyrrolo[3,2-h]quinoline-3-sulfonamide] | 26 nM |
| COc1nc(NS(=O)(=O)c2c[nH]c3c2ccc2cccnc23)nc(OC)c1CC(F)F [Example 169, N-[5-(2,2-difluoroethyl)-4,6-dimethoxy-pyrimidin-2-yl]-1H-pyrrolo[3,2-h]quinoline-3-sulfonamide] | 20 nM |
| COc1nc(NS(=O)(=O)c2c[nH]c3nc(Cl)ccc23)nc(OC)c1OC(F)(F)CF [Example 171, 6-chloro-N-[4,6-dimethoxy-5-(1,1,2-trifluoroethoxy)pyrimidin-2-yl]-1H-pyrrolo[2,3-b]pyridine-3-sulfonamide] | 89 nM |
| COc1nc(NS(=O)(=O)c2c[nH]c3nc(Br)ccc23)nc(OC)c1OC(F)F [Example 172, 6-bromo-N-[5-(difluoromethoxy)-4,6-dimethoxy-pyrimidin-2-yl]-1h-pyrrolo[2,3-b]pyridine-3-sulfonamide] | 15 nM |
| COc1cnc(NS(=O)(=O)c2c[nH]c3cc(Cl)ccc23)nc1Cl [Example 173, 6-chloro-N-(4-chloro-5-methoxy-pyrimidin-2-yl)-1H-indole-3-sulfonamide] | 877 nM |
| COc1nc(NS(=O)(=O)c2c[nH]c3cc(Cl)ccc23)ncc1CC(F)CF (centres unmarked) [Example 176, 6-chloro-N-[5-(2,3-difluoropropyl)-4-methoxy-pyrimidin-2-yl]-1H-indole-3-sulfonamide] | 47 nM |
| COc1nc(NS(=O)(=O)c2c[nH]c3cc(Cl)ccc23)ncc1CC(F)(F)F [Example 177, 6-chloro-N-[4-methoxy-5-(2,2,2-trifluoroethyl)pyrimidin-2-yl]-1H-indole-3-sulfonamide] | 162 nM |
| COc1nc(NS(=O)(=O)c2c[nH]c3cc(Cl)ccc23)ncc1CCC(F)(F)F [Example 178, 6-chloro-N-[4-methoxy-5-(3,3,3-trifluoropropyl)pyrimidin-2-yl]-1H-indole-3-sulfonamide] | 108 nM |
| COc1nc(NS(=O)(=O)c2c[nH]c3cc(Cl)ccc23)ncc1C#CC1COC1 [Example 180, 6-chloro-N-[4-methoxy-5-[2-(oxetan-3-yl)ethynyl]pyrimidin-2-yl]-1H-indole-3-sulfonamide] | 305 nM |
| COc1nc(NS(=O)(=O)c2c[nH]c3cc(Cl)ccc23)ncc1CCC1COC1 [Example 181, 6-chloro-N-[4-methoxy-5-[2-(oxetan-3-yl)ethyl]pyrimidin-2-yl]-1H-indole-3-sulfonamide] | 16800 nM |
| COc1nc(NS(=O)(=O)c2c[nH]c3cc(Cl)c(F)cc23)ncc1CC(F)F [Example 185, 6-chloro-N-[5-(2,2-difluoroethyl)-4-methoxy-pyrimidin-2-yl]-5-fluoro-1H-indole-3-sulfonamide] | 89 nM |
| COc1nc(NS(=O)(=O)c2c[nH]c3c(OC)c(Cl)ccc23)ncc1CCC(F)F [Example 187, 6-chloro-N-[5-(3,3-difluoropropyl)-4-methoxy-pyrimidin-2-yl]-7-methoxy-1H-indole-3-sulfonamide] | 18 nM |
| COc1nc(NS(=O)(=O)c2c[nH]c3c(OC(F)F)c(Cl)ccc23)ncc1CC(F)F [Example 188, 6-chloro-N-[5-(2,2-difluoroethyl)-4-methoxy-pyrimidin-2-yl]-7-(difluoromethoxy)-1H-indole-3-sulfonamide] | 28 nM |
| COc1nc(NS(=O)(=O)c2c[nH]c3nc(C(F)F)ccc23)nc(OC)c1CC(F)F [Example 194, N-[5-(2,2-difluoroethyl)-4,6-dimethoxy-pyrimidin-2-yl]-6-(difluoromethyl)-1H-pyrrolo[2,3-b]pyridine-3-sulfonamide] | 25 nM |

The next lines start with the values.

| IC50 | Compound |
| --- | --- |
| 116 nM | COc1nc(NS(=O)(=O)c2csc3cc(Cl)ccc23)ncc1CCC(F)F [Example 155, 6-chloro-N-[5-(3,3-difluoropropyl)-4-methoxy-pyrimidin-2-yl]benzothiophene-3-sulfonamide] |
| 92 nM | COc1nc(NS(=O)(=O)c2csc3cc(Cl)ccc23)ncc1CCC#N [Example 156, 6-chloro-N-[5-(2-cyanoethyl)-4-methoxy-pyrimidin-2-yl]benzothiophene-3-sulfonamide] |
| 176 nM | COc1nc(NS(=O)(=O)c2csc3cc(Br)ccc23)ncc1OCC(F)F [Example 157, 6-bromo-N-[5-(2,2-difluoroethoxy)-4-methoxy-pyrimidin-2-yl]benzothiophene-3-sulfonamide] |
| 47 nM | COc1nc(NS(=O)(=O)c2csc3cc(Br)ccc23)ncc1OCCF [Example 158, 6-bromo-N-[5-(2-fluoroethoxy)-4-methoxy-pyrimidin-2-yl]benzothiophene-3-sulfonamide] |
| 218 nM | COc1nc(NS(=O)(=O)c2csc3cc(C)ccc23)ncc1OCCF [Example 159, N-[5-(2-fluoroethoxy)-4-methoxy-pyrimidin-2-yl]-6-methyl-benzothiophene-3-sulfonamide] |
| 72 nM | COc1nc(NS(=O)(=O)c2c[nH]c3nc(Br)ccc23)ncc1OCC(F)F [Example 161, 6-bromo-N-[5-(2,2-difluoroethoxy)-4-methoxy-pyrimidin-2-yl]-1H-pyrrolo[2,3-b]pyridine-3-sulfonamide] |
| 248 nM | COc1nc(NS(=O)(=O)c2csc3c(F)c(Cl)ccc23)ncc1CC(F)F [Example 162, 6-chloro-N-[5-(2,2-difluoroethyl)-4-methoxy-pyrimidin-2-yl]-7-fluoro-benzothiophene-3-sulfonamide] |
| 126 nM | COc1nc(NS(=O)(=O)c2c[nH]c3c(F)c(F)ccc23)ncc1CC(F)F [Example 164, N-[5-(2,2-difluoroethyl)-4-methoxy-pyrimidin-2-yl]-6,7-difluoro-1H-indole-3-sulfonamide] |
| 1110 nM | COc1nc(NS(=O)(=O)c2csc3nc(C(F)F)ccc23)ncc1OCCF [Example 165, 6-(difluoromethyl)-N-[5-(2-fluoroethoxy)-4-methoxy-pyrimidin-2-yl]thieno[2,3-b]pyridine-3-sulfonamide] |
| 1160 nM | COc1nc(NS(=O)(=O)c2csc3nc(C(F)F)ccc23)ncc1CC(F)F [Example 166, N-[5-(2,2-difluoroethyl)-4-methoxy-pyrimidin-2-yl]-6-(difluoromethyl)thieno[2,3-b]pyridine-3-sulfonamide] |
| 162 nM | COc1nc(NS(=O)(=O)c2c[nH]c3nc(Cl)ccc23)ncc1OCC(F)F [Example 170, 6-chloro-N-[5-(2,2-difluoroethoxy)-4-methoxy-pyrimidin-2-yl]-1H-pyrrolo[2,3-b]pyridine-3-sulfonamide] |
| 484 nM | COc1nc(NS(=O)(=O)c2c[nH]c3cc(Cl)ccc23)ncc1OCCCF [Example 174, 6-chloro-N-[5-(3-fluoropropoxy)-4-methoxy-pyrimidin-2-yl]-1H-indole-3-sulfonamide] |
| 73 nM | CC#CCOc1cnc(NS(=O)(=O)c2c[nH]c3cc(Cl)ccc23)nc1OC [Example 175, N-(5-but-2-ynoxy-4-methoxy-pyrimidin-2-yl)-6-chloro-1H-indole-3-sulfonamide] |
| 101 nM | COc1nc(NS(=O)(=O)c2c[nH]c3cc(C)ccc23)ncc1CC(F)F [Example 182, N-[5-(2,2-difluoroethyl)-4-methoxy-pyrimidin-2-yl]-6-methyl-1H-indole-3-sulfonamide] |
| 23 nM | COc1nc(NS(=O)(=O)c2c[nH]c3c(Br)c(Cl)ccc23)ncc1CCC(F)F [Example 183, 7-bromo-6-chloro-N-[5-(3,3-difluoropropyl)-4-methoxy-pyrimidin-2-yl]-1H-indole-3-sulfonamide] |
| 29 nM | COc1nc(NS(=O)(=O)c2c[nH]c3c(C)c(Br)ccc23)ncc1CC(F)F [Example 184, 6-bromo-N-[5-(2,2-difluoroethyl)-4-methoxy-pyrimidin-2-yl]-7-methyl-1H-indole-3-sulfonamide] |
| 13 nM | COc1nc(NS(=O)(=O)c2c[nH]c3c(OC)c(Cl)ccc23)ncc1CC(F)F [Example 186, 6-chloro-N-[5-(2,2-difluoroethyl)-4-methoxy-pyrimidin-2-yl]-7-methoxy-1H-indole-3-sulfonamide] |
| 167 nM | COc1nc(NS(=O)(=O)c2c[nH]c3cc(Br)ccc23)ncc1OC(F)F [Example 189, 6-bromo-N-[5-(difluoromethoxy)-4-methoxy-pyrimidin-2-yl]-1H-indole-3-sulfonamide] |
| 106 nM | COc1nc(NS(=O)(=O)c2c[nH]c3cc(C(F)(F)F)ccc23)ncc1CC(F)F [Example 190, N-[5-(2,2-difluoroethyl)-4-methoxy-pyrimidin-2-yl]-6-(trifluoromethyl)-1H-indole-3-sulfonamide] |
| 33 nM | COc1nc(NS(=O)(=O)c2c[nH]c3c(F)c(Br)ccc23)ncc1CC(F)F [Example 191, 6-bromo-N-[5-(2,2-difluoroethyl)-4-methoxy-pyrimidin-2-yl]-7-fluoro-1H-indole-3-sulfonamide] |
| 20 nM | COc1nc(NS(=O)(=O)c2c[nH]c3c(C)c(Cl)ccc23)ncc1CC(F)F [Example 192, 6-chloro-N-[5-(2,2-difluoroethyl)-4-methoxy-pyrimidin-2-yl]-7-methyl-1H-indole-3-sulfonamide] |
